Source: US20240351997A1, “NOVEL PARP7 INHIBITOR AND USE THEREOF” (SHANGHAI QILU PHARMACEUTICAL RESEARCH AND DEVELOPMENT …, priority 2021, published 2024)

What was measured:
PARP7 = PARP7 (Homo sapiens (Human), UniProt Q7Z3E1); experiment: In vitro enzymology experiment of PARP7 (enzymatic inhibition); type: biochemical
Summary of the method: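 Histone-coated plate ADP-ribosylation format: compound preincubated 10 min at room temperature with preincubated (25 °C, 10 min) enzyme mixture; incorporated biotin detected by streptavidin-HRP and QuantaRed fluorescence (Ex550/Em620).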

[1] = In vivo pharmacokinetic assay in mice (intravenous injection and oral administration); conditions: C57BL/6 mice; for AUC / clearance / half-life / Vd / Cmax: male, mouse, plasma; for Vd: read-out: Vss
Text: (§1) III. In Vivo Pharmacokinetic Assay in Mice and Rats
(§2) The pharmacokinetic behavior of the compound of the present disclosure in plasma after a single intravenous injection and oral administration was studied using male C57BL/6 mice or SD male rats as experimental animals.
(§3) Healthy adult C57BL/6 mice or SD rats (3 mice or rats per group), male, supplied by Shanghai Jihui Laboratory Animal Care Co., Ltd. and Vital River Laboratory Animal Technology Co., Ltd.
(§4) Both the intravenous injection and oral administration groups consisted of 3 mice or rats. The intravenous injection was at a dose of 1 mg/kg and in a volume of 5 mL/kg; the oral administration was at a dose of 5 mg/kg and in a volume of 10 mL/kg. The vehicle for administration was 5% DMSO/5% Kolliphor HS 15/90% Saline.
(§5) 2.3 Experimental Equipment
(§6) The centrifuge was purchased from Eppendorf, and the pipette was purchased from Eppendorf.
(§7) After the animals were administered, 0.02 mL of blood was collected from the vein at 0.0833 (IV), 0.25, 0.5, 1, 2, 4, 8, and 24 hours, respectively, placed in an EDTA-K2 test tube, centrifuged at 4600 rpm for 5 minutes at 4° C. to separate the plasma, and stored at −80° C.
(§8) 1) 10 μL of plasma sample was precipitated by adding 200 μL of acetonitrile, vortexed to mix, and centrifuged for 15 minutes.
(§9) 2) The treated supernatant was diluted with water, and the concentration of the test compound was analyzed by LC/MS/MS.
(§10) • Liquid phase conditions: Shimadzu LC-30AD • Mass spectrometry conditions: AB Sciex API 5500 • Chromatographic column: Phenomenex Kinetex 2.6 μm C18 • Mobile phases: A: 5 mM ammonium acetate aqueous solution (containing 0.05% formic acid); B: acetonitrile (containing 0.1% formic acid); flow rate: 0.5 mL/min
(§11) 3. Experimental Results and Analysis
(§12) Pharmacokinetic parameters were calculated using WinNonlin 8.0, and the pharmacokinetic parameters for intravenous injection and oral administration in mice or rats are shown in Table 2 and Table 3 below: […]

[2] = In vivo pharmacokinetic assay in rats (intravenous injection and oral administration); conditions: SD rats; for AUC / clearance / half-life / Vd / Cmax: male, rat, plasma; for Vd: read-out: Vss
Text: as §1, §2, §3, §4, §5, §6, §7, §8, §9, §10, §11, §12

Sequence of PARP7 (Q7Z3E1 whole entry): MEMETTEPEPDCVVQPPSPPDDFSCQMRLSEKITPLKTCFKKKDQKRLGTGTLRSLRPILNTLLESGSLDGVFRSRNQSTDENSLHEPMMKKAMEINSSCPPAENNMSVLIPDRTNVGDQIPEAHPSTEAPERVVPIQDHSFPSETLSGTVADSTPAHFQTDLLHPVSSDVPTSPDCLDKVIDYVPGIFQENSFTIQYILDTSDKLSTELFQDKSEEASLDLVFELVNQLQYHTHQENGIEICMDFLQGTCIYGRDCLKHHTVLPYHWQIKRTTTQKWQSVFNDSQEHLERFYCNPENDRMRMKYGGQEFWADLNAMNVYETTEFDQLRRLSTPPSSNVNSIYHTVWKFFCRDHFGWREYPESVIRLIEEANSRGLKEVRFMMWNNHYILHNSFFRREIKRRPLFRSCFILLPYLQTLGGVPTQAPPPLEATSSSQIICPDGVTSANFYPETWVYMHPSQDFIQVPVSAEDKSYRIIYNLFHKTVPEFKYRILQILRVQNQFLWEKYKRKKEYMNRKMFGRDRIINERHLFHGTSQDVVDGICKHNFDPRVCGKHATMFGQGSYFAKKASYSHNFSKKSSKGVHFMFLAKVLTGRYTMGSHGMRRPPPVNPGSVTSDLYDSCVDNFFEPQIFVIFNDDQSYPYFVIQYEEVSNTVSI

| Structure (SMILES) | IC50 (PARP7) [nM] | F ([1]; oral administration, 5 mg/kg) [%] | AUC ([1]; intravenous injection, 1 mg/kg) [µg·h/mL] | clearance ([1]; intravenous injection, 1 mg/kg) [L/h/kg] | half-life ([1]; intravenous injection, 1 mg/kg) [h] | Vd ([1]; intravenous injection, 1 mg/kg) [L/kg] | AUC ([1]; oral administration, 5 mg/kg) [µg·h/mL] | Cmax ([1]; oral administration, 5 mg/kg) [µg/mL] | F ([2]; oral administration, 5 mg/kg) [%] | AUC ([2]; intravenous injection, 1 mg/kg) [µg·h/mL] | clearance ([2]; intravenous injection, 1 mg/kg) [L/h/kg] | half-life ([2]; intravenous injection, 1 mg/kg) [h] | Vd ([2]; intravenous injection, 1 mg/kg) [L/kg] | AUC ([2]; oral administration, 5 mg/kg) [µg·h/mL] | Cmax ([2]; oral administration, 5 mg/kg) [µg/mL] |
| --- | --- | --- | --- | --- | --- | --- | --- | --- | --- | --- | --- | --- | --- | --- | --- |
| C[C@@H](Cc1c[nH]c(=O)c(C(F)(F)F)c1)OC(=O)N1CCN(c2ncc(C(F)(F)F)cn2)CC1 (single isomer, unassigned) [Example 35] | 0.53 | 52 | 2.57 | 0.4 | 4.2 | 1.5 | 6.76 | 3.75 | 35 | 0.633 | 1.7 | 3.5 | 3.3 | 1.06 | 0.434 |
| O=C(OCCc1c[nH]c(=O)c(C(F)(F)F)c1)N1CCN(c2ncc(C(F)(F)F)cn2)CC1 [Example 3, 2-(6-Oxo-5-(trifluoromethyl)-1,6-dihydropyridin-3-yl)ethyl 4-(5-(trifluoromethyl)pyrimidin-2-yl)piperazine-1-carboxylate] | 1.8 | 80 | 10.4 | 0.09 | 6.1 | 0.6 | 42.2 | 9.31 | 47 | 5.75 | 0.2 | 4.7 | 0.9 | 13.8 | 2.35 |
| C[C@@H]1CN(c2ncc(C(F)(F)F)cn2)CCN1C(=O)OCCc1c[nH]c(=O)c(C(F)(F)F)c1 [Example 109, 2-(6-Oxo-5-(trifluoromethyl)-1,6-dihydropyridin-3-yl)ethyl (R)-2-methyl-4-(5-(trifluoromethyl)pyrimidin-2-yl)piperazine-1-carboxylate] | 0.38 | 72 | 8.1 | 0.1 | 6.3 | 0.6 | 29.6 | 8.49 | 99 | 1.06 | 0.9 | 2.3 | 2.1 | 5.38 | 1.31 |
